According to ChEMBL document CHEMBL4330186, “An Isoquinoline Scaffold as a Novel Class of Allosteric HIV-1 Integrase Inhibitors” (ACS Med Chem Lett, 2019):
Values belong to the compound of their own block, whether it stands above or below them.

Columns and labels:
[1] = target: T1, Human immunodeficiency virus type 1 integrase (Human immunodeficiency virus 1, UniProt Q7ZJM1); experiment: Inhibition of LEDGF/p75-independant HIV1 His/FLAG-tagged integrase expressed in Escherichia coli BL21(DE3) by HTRF assay
[2] = Stability of the compound at 60 degC for 17 hrs by 1H NMR analysis; type: physicochemical
[3] = Drug metabolism in DMSO d6 at 100 degC for 3 days by 1H NMR analysis
[4] = target: T1, Human immunodeficiency virus type 1 integrase; experiment: Inhibition of LEDGF/p75-dependant HIV1 His/FLAG-tagged integrase expressed in Escherichia coli BL21(DE3) by HTRF assay
[5] = target: T1, Human immunodeficiency virus type 1 integrase; experiment: Inhibition of LEDGF/p75 binding to HIV1 His/FLAG-tagged integrase expressed in Escherichia coli BL21(DE3) by HTRF assay
[6] = target: T1, Human immunodeficiency virus type 1 integrase; experiment: Induction of HIV1 His/FLAG-tagged integrase hyper-multimerization expressed in Escherichia coli BL21(DE3) by HTRF assay
[7] = target: T1, Human immunodeficiency virus type 1 integrase; experiment: Inhibition of biotinylated-TAR-RNA binding to HIV1 His6-tagged integrase expressed in Escherichia coli BL21(DE3) preincubated for 2 hrs followed by RNA addition and measured after 2 hrs by Alpha screen assay
[8] = test system: Human immunodeficiency virus 1; experiment: Antiviral activity against HIV-1 NL4-3 harboring wild-type integrase infected in human HeLa TZM-bl cells after 48 hrs by p24 ELISA; type: functional, organism-based; conditions: Human immunodeficiency virus 1, NL4-3, 48 h
[9] = test system: Human immunodeficiency virus 1; experiment: Antiviral activity against HIV-1 NL4-3 harboring integrase A128T mutant infected in human HeLa TZM-bl cells after 48 hrs by p24 ELISA; type: functional, organism-based; conditions: Human immunodeficiency virus 1, NL4-3, 48 h
[10] = Drug level treated with 2-(1-(biphenyl-4-yl)-3-(chroman-6-yl)isoquinolin-4-yl)-2-tert-butoxyacetic acid at 100 degC for 17 days by 1H NMR analysis; type: physicochemical; conditions: 408 h
[11] = Drug level treated with 2-(1-(biphenyl-4-yl)-3-(chroman-6-yl)isoquinolin-4-yl)-2-tert-butoxyacetic acid at 100 degC for 17 days by HSQC NMR analysis; type: physicochemical; conditions: 408 h
[12] = Drug metabolism assessed as 1-([1,1'-biphenyl]-4-yl)-3-(chroman-6-yl)isoquinoline-4-carbaldehyde formation at 100 degC for 17 days by 1H NMR analysis
[13] = Drug metabolism assessed as 1-([1,1'-biphenyl]-4-yl)-3-(chroman-6-yl)isoquinoline-4-carbaldehyde formation at 100 degC for 17 days by HSQC NMR analysis

T1 sequence (Q7ZJM1 whole entry): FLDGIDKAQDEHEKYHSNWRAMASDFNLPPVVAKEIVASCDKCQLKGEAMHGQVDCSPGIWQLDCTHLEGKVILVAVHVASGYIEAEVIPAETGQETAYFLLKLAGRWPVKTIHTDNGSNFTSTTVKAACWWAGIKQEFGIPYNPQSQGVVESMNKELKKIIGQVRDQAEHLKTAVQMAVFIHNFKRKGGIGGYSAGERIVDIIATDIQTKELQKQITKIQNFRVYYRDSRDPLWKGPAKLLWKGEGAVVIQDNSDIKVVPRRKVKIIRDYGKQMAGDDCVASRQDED

IC50 [1]: 810 nM
Structure (SMILES): CC(C)(C)OC(C(=O)O)c1c(-c2ccc3c(c2)CCCO3)nc(-c2nc3cc(Cl)ccc3[nH]2)c2ccccc12 (stereo not given)

IC50 [1]: 3550 nM
Structure (SMILES): CC(C)(C)OC(C(=O)O)c1c(-c2ccc3c(c2)CCCO3)nc(-c2ccco2)c2ccccc12 (stereo not given)

IC50 [1]: 1000 nM
Structure (SMILES): COc1ccc(-c2nc(-c3ccc4c(c3)CCCO4)c(C(OC(C)(C)C)C(=O)O)c3ccccc23)cc1 (stereo not given)

IC50 [1]: 1140 nM | Stability [2]: Stable
Structure (SMILES): COc1cccc(-c2nc(-c3ccc4c(c3)CCCO4)c(C(OC(C)(C)C)C(=O)O)c3ccccc23)c1 (stereo not given)
Drug metabolism [3]: Metabolite detected

IC50 [1]: 12300 nM
Structure (SMILES): CC(C)(C)OC(C(=O)O)c1c(-c2ccc3c(c2)CCCO3)nc(-c2cccc(C(=O)O)c2)c2ccccc12 (stereo not given)

IC50 [1]: 1220 nM
Structure (SMILES): CC(C)(C)OC(C(=O)O)c1c(-c2ccc3c(c2)CCCO3)nc(-c2ccc3c(c2)CCCO3)c2ccccc12 (stereo not given)

IC50 [1]: 10100 nM
Structure (SMILES): CC(C)(C)OC(C(=O)O)c1c(-c2ccccc2)nc(-c2ccccc2)c2ccccc12 (stereo not given)

IC50 [1]: 12900 nM | Stability [2]: Stable
Structure (SMILES): CC(C)(C)OC(C(=O)O)c1c(-c2ccc3c(c2)CCCO3)nc(-c2cccc(F)c2)c2ccccc12 (stereo not given)
Drug metabolism [3]: Metabolite detected

IC50 [1]: 4650 nM
Structure (SMILES): CC(C)(C)OC(C(=O)O)c1c(-c2ccc3c(c2)CCCO3)nc(-c2ccccc2)c2ccccc12 (stereo not given)

Structure (SMILES): CC(C)(C)OC(C(=O)O)c1c(-c2ccc3c(c2)CCCO3)nc(-c2cnn(Cc3ccccc3)c2)c2ccccc12 (stereo not given)
IC50 [1]: 480 nM | IC50 [4]: 23400 nM | IC50 [5]: 36700 nM | EC50 [6]: < 1790 nM | IC50 [7]: 210 nM | EC50 [8]: 1100 nM | EC50 [9]: 730 nM

IC50 [1]: 7640 nM
Structure (SMILES): CC(C)(C)OC(C(=O)O)c1c(-c2ccc3c(c2)CCCO3)nc(-c2ccc(C(F)(F)F)cc2)c2ccccc12 (stereo not given)

Structure (SMILES): O=Cc1c(-c2ccc3c(c2)CCCO3)nc(-c2ccc(-c3ccccc3)cc2)c2ccccc12
Drug metabolism [10]: Metabolite_Detected | Drug metabolism [11]: Metabolite_Detected

IC50 [1]: 13800 nM
Structure (SMILES): COc1cccc(-c2nc(-c3ccccc3)c(C(OC(C)(C)C)C(=O)O)c3ccccc23)c1 (stereo not given)

Structure (SMILES): Cc1nc2ccc(Br)cc2c(-c2ccc(Cl)cc2)c1C(OC(C)(C)C)C(=O)O (stereo not given)
IC50 [1]: 120 nM | IC50 [4]: 150 nM | IC50 [5]: 150 nM | EC50 [6]: 146 nM | IC50 [7]: 136 nM | EC50 [8]: 630 nM | EC50 [9]: 12200 nM

IC50 [1]: 830 nM | Stability [2]: Stable
Structure (SMILES): CC(C)(C)OC(C(=O)O)c1c(-c2ccc3c(c2)CCCO3)nc(-c2ccc(-c3ccccc3)cc2)c2ccccc12 (stereo not given)
Drug metabolism [12]: Metabolite detected | Drug metabolism [13]: Metabolite detected
